Tests used:
[1] = target: T1, JAK3 (Homo sapiens, UniProt P52333); test: Kinase activity test on JAK3 (Caliper EZ Reader conversion rate)
T1 sequence (P52333 1-1124): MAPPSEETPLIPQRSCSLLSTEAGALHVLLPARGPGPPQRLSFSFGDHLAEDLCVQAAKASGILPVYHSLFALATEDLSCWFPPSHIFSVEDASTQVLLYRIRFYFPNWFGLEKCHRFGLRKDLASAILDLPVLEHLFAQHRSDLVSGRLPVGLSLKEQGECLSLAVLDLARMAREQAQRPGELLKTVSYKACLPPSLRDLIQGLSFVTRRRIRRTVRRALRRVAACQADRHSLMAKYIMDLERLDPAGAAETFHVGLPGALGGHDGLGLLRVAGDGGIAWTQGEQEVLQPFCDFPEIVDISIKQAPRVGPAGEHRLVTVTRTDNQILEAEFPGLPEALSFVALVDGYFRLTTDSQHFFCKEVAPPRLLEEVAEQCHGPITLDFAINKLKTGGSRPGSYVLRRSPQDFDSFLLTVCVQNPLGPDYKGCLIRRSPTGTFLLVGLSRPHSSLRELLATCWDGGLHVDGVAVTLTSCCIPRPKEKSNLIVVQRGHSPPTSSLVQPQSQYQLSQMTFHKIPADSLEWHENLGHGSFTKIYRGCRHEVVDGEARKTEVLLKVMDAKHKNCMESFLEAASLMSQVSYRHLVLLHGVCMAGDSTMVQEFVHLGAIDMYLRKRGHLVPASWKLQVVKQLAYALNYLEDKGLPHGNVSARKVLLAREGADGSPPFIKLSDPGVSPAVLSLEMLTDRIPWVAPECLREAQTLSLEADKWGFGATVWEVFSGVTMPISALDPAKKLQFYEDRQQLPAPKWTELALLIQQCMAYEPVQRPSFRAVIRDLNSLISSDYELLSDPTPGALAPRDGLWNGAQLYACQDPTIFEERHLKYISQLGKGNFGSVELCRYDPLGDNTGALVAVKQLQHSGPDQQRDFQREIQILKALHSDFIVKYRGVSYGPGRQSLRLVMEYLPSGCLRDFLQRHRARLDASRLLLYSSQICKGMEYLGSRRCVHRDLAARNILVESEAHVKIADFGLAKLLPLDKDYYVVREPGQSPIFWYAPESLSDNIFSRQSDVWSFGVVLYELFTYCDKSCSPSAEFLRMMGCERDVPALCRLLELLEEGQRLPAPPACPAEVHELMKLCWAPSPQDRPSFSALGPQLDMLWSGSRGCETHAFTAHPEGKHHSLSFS

[2] = system: ICR mice; test: Acute toxicity test, single oral administration to ICR mice (MTD); format: in vivo
[3] = as above; format: in vivo; settings: ICR, mouse, in vivo, po, read-out: MTD (maximum tolerated dose)
[4] = target: JAK2 (Homo sapiens, UniProt O60674); test: Kinase activity test on JAK2 (Caliper EZ Reader conversion rate); settings: for JAK1/JAK2 / JAK3/JAK2: ratio of IC50 values; for JAK1/JAK2: selectivity for JAK2 over JAK1; for JAK3/JAK2: selectivity for JAK2 over JAK3
[5] = system: TF-1; test: TF-1 cell proliferation experiment (CellTiter Glo); format: cell-based; settings: Homo sapiens; TF-1 cells, 72 hours; read-out: TF-1 (μM), proliferation inhibition
[6] = system: HEL92.1.7; test: HEL92.1.7 cell proliferation experiment (Cell Titer-Glo); format: cell-based; settings: Homo sapiens, HEL 92.1.7; HEL92.1.7 cells, 72 hours
[7] = target: JAK1 (Homo sapiens, UniProt P23458); test: Kinase activity test on JAK1 (Caliper EZ Reader conversion rate)
[8] = Pharmacokinetic test in SD rats, intragastric administration; format: in vivo; settings: rat, po, single intragastric administration, 25 mg/kg, plasma; for Cmax: read-out: Blood concentration Cmax; for AUC(0-t): read-out: Curve area AUClast; for half-life: read-out: Half life t1/2 (converted); for Tmax: read-out: Time to peak Tmax
Procedure: SD rats were used as the test animals.
Standard curve and preparation and processing of quality control samples:
Stock solution was diluted with 50% acetonitrile/water solution to obtain standard working solutions of 0.04, 0.10, 0.20, 0.40, 1.00, 2.00, 4.00 μg/mL, and quality control working solutions of 0.10, 1.00, 3.00 μg/mL. 2.50 μL of standard curve working solutions and quality control working solutions were added to 47.5 μL of blank rat plasma, respectively, to obtain standard curve solutions having analyte concentrations of 2.00, 5.00, 10.00, 20.00, 50.00, 100.00, 200.00 ng/mL and quality control samples having concentrations of 5.00, 50.00, and 150.00 ng/mL. 200 μL of acetonitrile (containing 5 ng/mL of the internal standard loratadine) was added. After vortexing for 3 minutes, the solutions were centrifuged at 15000 rpm at 4° C. for 15 minutes. 100 μL of the supernatant was taken for LC-MS/MS analysis. WinNonlin® 8.0 was used to calculate the experimental results.

Chain of JAK1 (P23458 whole entry): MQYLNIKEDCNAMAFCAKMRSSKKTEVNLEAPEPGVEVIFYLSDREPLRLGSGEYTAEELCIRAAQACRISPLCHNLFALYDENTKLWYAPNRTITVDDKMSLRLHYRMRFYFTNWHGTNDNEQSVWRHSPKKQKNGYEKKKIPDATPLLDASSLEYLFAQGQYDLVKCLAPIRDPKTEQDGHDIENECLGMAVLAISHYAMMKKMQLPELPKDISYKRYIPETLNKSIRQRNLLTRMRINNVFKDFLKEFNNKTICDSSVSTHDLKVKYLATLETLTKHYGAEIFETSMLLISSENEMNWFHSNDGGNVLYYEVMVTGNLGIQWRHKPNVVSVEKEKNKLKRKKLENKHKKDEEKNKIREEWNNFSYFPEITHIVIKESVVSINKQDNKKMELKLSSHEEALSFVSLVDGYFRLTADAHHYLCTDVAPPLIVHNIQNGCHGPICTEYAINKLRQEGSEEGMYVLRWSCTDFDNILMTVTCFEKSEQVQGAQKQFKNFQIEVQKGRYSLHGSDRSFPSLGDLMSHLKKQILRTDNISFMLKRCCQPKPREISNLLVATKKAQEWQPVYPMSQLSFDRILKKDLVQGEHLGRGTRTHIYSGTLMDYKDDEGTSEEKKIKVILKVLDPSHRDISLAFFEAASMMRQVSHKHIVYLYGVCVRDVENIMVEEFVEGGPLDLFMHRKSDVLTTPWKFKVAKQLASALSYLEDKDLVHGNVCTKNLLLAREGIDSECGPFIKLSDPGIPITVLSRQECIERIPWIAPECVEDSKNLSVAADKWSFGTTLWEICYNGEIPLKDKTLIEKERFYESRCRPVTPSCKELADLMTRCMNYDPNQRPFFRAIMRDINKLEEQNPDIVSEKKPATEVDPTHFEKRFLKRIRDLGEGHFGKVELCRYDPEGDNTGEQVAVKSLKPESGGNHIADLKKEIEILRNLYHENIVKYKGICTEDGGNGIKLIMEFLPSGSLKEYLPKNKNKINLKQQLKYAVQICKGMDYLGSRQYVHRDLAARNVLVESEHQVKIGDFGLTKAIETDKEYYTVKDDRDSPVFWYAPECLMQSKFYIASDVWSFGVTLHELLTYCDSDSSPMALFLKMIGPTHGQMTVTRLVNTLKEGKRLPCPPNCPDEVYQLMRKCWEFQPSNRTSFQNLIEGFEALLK
Chain of JAK2 (O60674 whole entry): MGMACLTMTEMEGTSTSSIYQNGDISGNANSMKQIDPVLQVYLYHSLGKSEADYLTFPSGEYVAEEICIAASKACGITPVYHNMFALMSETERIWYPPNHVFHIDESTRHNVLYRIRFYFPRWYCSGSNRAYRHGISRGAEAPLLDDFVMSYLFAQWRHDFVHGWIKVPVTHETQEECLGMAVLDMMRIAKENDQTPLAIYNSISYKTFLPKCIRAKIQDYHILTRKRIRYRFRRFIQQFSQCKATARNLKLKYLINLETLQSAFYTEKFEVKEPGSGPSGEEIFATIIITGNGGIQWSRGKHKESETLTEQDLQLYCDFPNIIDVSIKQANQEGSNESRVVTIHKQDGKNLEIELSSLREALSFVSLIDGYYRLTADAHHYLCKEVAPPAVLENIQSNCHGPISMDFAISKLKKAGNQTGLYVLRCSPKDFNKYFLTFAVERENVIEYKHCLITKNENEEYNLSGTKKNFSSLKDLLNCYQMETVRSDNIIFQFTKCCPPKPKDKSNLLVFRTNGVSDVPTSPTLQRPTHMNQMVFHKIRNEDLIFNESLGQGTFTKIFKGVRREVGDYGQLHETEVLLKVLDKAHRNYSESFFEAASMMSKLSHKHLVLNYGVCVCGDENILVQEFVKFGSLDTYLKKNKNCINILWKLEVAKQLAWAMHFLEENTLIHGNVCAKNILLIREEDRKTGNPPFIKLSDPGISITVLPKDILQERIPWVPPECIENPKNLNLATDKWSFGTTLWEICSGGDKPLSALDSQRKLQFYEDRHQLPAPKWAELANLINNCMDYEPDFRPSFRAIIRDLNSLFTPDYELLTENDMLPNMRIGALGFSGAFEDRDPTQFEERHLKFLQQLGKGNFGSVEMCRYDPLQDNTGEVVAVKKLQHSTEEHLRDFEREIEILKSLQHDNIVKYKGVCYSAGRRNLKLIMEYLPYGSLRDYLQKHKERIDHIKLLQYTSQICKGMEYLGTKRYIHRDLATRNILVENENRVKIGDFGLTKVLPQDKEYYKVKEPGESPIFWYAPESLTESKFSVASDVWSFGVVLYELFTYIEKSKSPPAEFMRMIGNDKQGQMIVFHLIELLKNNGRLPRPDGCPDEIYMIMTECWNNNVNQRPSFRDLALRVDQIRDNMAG

Structure (SMILES)	IC50 [1] [nM]	MTD (maximum tolerated dose) [2] [mg/kg]	MTD at 6 days [3] [mg/kg]	IC50 [4] [nM]	JAK1/JAK2 [4]	JAK3/JAK2 [4]	IC50 [5] [µM]	IC50 [6] [µM]	IC50 [7] [nM]	Cmax [8] [ng/mL]	AUC(0-t) [8] [ng·h/mL]	half-life [8] [h]	Tmax [8] [h]
CC(C)(C)NS(=O)(=O)c1cccc(N2CCc3cnc(Nc4ccc(OCCN5CCNCC5)cc4)nc32)c1 [Compound I-2]	980	1500	≥ 1000	1.1	172	891	0.21	0.3	189	1020	839	6	1.5
CC(C)(C)NS(=O)(=O)c1cccc(N2CCc3cnc(Nc4ccc(OC5CCNCC5)cc4)nc32)c1 [Compound I-19]	1520	1500	≥ 1000	0.9	134	1689	0.17	0.21	121	1120	935	6.2	1.5
CN1CCN(c2ccc(Nc3ncc4c(n3)N(c3cccc(S(=O)(=O)NC(C)(C)C)c3)CC4)cc2)CC1 [Compound I-15]	598	>2000	> 2000	0.73	99	819	0.12	0.17	72	1240	934	6.8	1.5
CN1CCN(CCOc2ccc(Nc3ncc4c(n3)N(c3cccc(S(=O)(=O)NC(C)(C)C)c3)CC4)cc2)CC1 [Compound I-4]	1020	1000	≥ 1000	1.2	87	850	0.18	0.34	105	1100	807	6.2	1.5

Reference: patent US12421238B2, “Selective dihydropyrrolopyrimidine JAK2 inhibitors” (CHENGDU JINRUI FOUNDATION BIOTECH CO., LTD., priority 2019, dated 2025)
